Results taken from patent US6670373B1, “Compounds and method for inhibiting MRP1” (Eli Lilly and Company, priority 1999, dated 2003).

Assays:
MRP1 = target: T1, MRP1 (Homo sapiens, UniProt P33527); assay: Reversal of MRP1-mediated doxorubicin resistance in HL60/Adr cells (alamarBlue cell growth); type: cell-based; details: oncolytic alone at the tested concentration
T1 construct: HL60/Adr and HL60/Vinc are continuous cell lines, which were selected for doxorubicin and vincristine resistance respectively; endogenous in cells; host or cells: HL60/Adr (doxorubicin-selected variant of human HL60)
T1 sequence (P33527 whole entry): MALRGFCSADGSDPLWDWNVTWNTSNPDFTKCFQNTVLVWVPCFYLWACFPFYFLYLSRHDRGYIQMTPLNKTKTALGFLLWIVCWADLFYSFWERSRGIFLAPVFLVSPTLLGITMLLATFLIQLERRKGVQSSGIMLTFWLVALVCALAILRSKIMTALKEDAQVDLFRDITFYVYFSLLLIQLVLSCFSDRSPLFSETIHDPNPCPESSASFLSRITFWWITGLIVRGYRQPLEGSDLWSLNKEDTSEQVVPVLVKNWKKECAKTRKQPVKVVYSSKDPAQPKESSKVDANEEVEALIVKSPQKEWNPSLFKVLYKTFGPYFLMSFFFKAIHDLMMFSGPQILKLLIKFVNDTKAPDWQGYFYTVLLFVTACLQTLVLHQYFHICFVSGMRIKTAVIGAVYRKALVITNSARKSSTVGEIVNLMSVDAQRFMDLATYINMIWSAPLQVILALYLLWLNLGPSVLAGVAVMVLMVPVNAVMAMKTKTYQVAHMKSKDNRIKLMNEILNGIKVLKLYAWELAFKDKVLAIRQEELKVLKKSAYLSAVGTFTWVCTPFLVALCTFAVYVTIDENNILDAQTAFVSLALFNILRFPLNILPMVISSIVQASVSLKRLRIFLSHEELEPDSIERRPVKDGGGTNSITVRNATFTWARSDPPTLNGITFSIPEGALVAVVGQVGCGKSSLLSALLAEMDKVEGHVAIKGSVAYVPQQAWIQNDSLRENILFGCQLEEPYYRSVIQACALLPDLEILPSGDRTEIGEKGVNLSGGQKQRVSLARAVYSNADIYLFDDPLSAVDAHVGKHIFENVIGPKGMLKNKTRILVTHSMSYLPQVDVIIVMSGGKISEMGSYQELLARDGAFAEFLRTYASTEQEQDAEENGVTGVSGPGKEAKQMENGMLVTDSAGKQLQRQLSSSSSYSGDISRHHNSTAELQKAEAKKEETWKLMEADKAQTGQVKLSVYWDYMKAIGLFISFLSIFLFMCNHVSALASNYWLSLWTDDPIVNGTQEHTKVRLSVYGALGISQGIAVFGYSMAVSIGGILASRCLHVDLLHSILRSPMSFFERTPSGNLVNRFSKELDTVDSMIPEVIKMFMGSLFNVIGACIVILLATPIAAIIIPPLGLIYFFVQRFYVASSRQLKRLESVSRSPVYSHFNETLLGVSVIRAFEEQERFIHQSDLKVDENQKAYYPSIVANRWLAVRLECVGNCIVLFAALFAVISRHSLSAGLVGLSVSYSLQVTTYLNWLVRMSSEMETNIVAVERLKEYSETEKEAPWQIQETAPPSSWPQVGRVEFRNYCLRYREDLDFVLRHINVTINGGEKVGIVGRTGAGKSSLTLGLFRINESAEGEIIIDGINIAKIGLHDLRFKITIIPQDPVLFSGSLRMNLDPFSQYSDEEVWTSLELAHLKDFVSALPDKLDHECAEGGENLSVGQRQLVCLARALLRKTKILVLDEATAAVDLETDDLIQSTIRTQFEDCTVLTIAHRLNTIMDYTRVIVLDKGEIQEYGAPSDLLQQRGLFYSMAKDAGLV
Protocol: (§1) The biological activity of the compounds of the present invention was evaluated employing an initial screening assay which rapidly and accurately measured the activity of the tested compound in inhibiting MRP1 or MDR1. Assays useful for evaluating this reversing capability are well known in the art. See, e.g., T. McGrath, et al., Biochemical Pharmacology, 38:3611, 1989; D. Marquardt and M. S. Center, Cancer Research, 52:3157, 1992; D. Marquardt, et al., Cancer Research, 50:1426, 1990; and Cole, et. al., Cancer Research, 54: 5902-5910, 1994.
(§2) Assay for Reversal of MRP1-Mediated Doxorubicin Resistance and MDR1-Mediated Vincristine Resistance: HL60/Adr and HL60/Vinc are continuous cell lines, which were selected for doxorubicin and vincristine resistance respectively by culturing HL60, a human acute myeloblastic leukemia cell line, in increasing concentrations of doxorubicin or vincristine until a highly resistant variant was attained.
(§3) HL60/Adr and HL60/Vinc cells were grown in RPMI 1640 (Gibco) containing 10% fetal bovine serum (FBS) and 50 μg/ml GENTAMICIN™ (Sigma). Cells were harvested; washed twice with assay medium (same as culture media); counted; and diluted to 1×10^5 cells/ml in assay medium. One hundred microliters of cells were aliquoted into wells of a 96 well tissue culture plate. […]

MDR1 = target: T2, MDR1 (Homo sapiens, UniProt P08183); assay: Reversal of MDR1-mediated vincristine resistance in HL60/Vinc cells (alamarBlue cell growth); type: cell-based; details: oncolytic alone at the tested concentration
T2 construct: HL60/Adr and HL60/Vinc are continuous cell lines, which were selected for doxorubicin and vincristine resistance respectively; endogenous in cells; host or cells: HL60/Vinc (vincristine-selected variant of human HL60)
T2 sequence (P08183 whole entry): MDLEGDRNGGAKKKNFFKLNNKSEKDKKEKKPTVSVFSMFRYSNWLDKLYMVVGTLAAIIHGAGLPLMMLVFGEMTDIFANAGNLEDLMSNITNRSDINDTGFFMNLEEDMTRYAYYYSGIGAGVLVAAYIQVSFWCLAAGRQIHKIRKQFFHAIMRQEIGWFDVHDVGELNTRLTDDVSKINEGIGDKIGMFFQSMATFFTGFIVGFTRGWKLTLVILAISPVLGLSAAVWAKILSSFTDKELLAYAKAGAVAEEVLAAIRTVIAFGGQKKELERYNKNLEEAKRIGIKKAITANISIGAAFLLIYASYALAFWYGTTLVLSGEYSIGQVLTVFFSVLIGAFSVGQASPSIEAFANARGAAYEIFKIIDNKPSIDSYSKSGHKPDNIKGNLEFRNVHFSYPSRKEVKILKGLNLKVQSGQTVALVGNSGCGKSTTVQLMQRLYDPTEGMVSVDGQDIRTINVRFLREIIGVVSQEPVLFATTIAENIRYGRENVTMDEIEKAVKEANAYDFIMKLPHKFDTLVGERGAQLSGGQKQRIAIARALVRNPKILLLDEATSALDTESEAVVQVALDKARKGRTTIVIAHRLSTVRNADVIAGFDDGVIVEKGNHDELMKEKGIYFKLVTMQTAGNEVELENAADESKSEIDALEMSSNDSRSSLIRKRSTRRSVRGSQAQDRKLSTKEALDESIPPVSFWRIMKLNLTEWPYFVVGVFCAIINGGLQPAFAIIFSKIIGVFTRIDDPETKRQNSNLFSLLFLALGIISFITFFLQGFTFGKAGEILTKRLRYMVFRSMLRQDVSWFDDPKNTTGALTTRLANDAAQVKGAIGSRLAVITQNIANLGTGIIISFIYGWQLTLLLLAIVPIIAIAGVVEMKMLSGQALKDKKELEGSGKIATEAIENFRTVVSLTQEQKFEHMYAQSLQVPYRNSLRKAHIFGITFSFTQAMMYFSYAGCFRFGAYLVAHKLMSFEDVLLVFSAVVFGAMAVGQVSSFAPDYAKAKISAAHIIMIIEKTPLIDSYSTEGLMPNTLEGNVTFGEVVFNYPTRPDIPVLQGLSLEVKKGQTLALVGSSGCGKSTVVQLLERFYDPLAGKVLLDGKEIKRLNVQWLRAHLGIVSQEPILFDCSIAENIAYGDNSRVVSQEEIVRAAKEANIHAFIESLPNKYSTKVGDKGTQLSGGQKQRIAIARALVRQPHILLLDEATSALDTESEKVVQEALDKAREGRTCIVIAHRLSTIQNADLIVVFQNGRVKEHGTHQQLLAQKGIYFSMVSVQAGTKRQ
Protocol: as §1, §2, §3

## COc1cccc2c1C(=O)c1c(O)c3c(c(O)c1C2=O)C[C@@](O)(C(=O)CO)C[C@@H]3O[C@H]1C[C@H](N)[C@H](O)[C@H](C)O1 [doxorubicin]
MRP1
  inhibition of cell growth by the oncolytic alone: minimally inhibits
MDR1
  inhibition of cell growth by the oncolytic alone: minimally inhibits
